Common to all, as to assay: growth of human tumour cells (NCI), 48 h
Assay [1] concerns HOP-62 NSCLC.
Assay [2] concerns DMS 114 small cell lung.
Assay [3] deals with OVCAR-5 ovarian.
The subject of assay [4] is HCC-2998 colon.
Assay [5] concerns MALME-3M melanoma.
In assay [6] the test system is NCI-H23 lung.
Assay [7] deals with A549 NSCLC.
For assay [8], the system named is HCT-116 colon.
Assay [9] concerns HT29 colon.
The test system of assay [10] is OVCAR-4 ovarian.
Assay [11] has as its system MOLT-4 leukemia.
For assay [12], the system named is U251 CNS.
For assay [13], the system named is KM20L2 colon.
Assay [14] relates to UACC-62 melanoma.
In assay [15] the test system is TK-10 renal.
Assay [16] has as its system MCF7 breast.
The subject of assay [17] is DU-145 prostate.
For assay [18], the system named is CAKI-1 renal.
For assay [19], the system named is M19-MEL melanoma.
The subject of assay [20] is HS 578T breast.

Here are results for 11 compounds from PubChem BioAssay (NCI).

Each structure is given as a SMILES string.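 Assay format: 96-well plates, 48-hour exposure. TGI: total growth inhibition.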 Where only a bound is given, the exact number is not on record here.

On to `C#CCCCCC#Cc1ccccc1C(=O)OC`, for which the TGI in assay [1] was over 100 µM; in assay [2] it was 60 µM; in assay [3], over 100 µM; in assay [4], over 100 µM; in assay [5], over 100 µM; in assay [6] it was over 100 µM. Moreover, the TGI is over 100 µM in assay [7]; 23 µM in [8]; over 100 µM in assay [9]; over 100 µM in assay [10]; 38.3 µM in assay [11]; over 100 µM in assay [12]. Also, the TGI was over 100 µM in assay [13], 94.7 µM in assay [14] and over 100 µM in assay [15].
As to `C=CCN1C(=O)/C(=C/c2ccccc2)N=C1SC1OC(COC(=O)c2ccccc2)C(OC(=O)c2ccccc2)C1OC(=O)c1ccccc1` (stereo not given), the TGI in assay [1], in [16], in assay [3], in assay [4], in assay [5] and in assay [6] was over 100 µM throughout. For the same compound, the TGI in assay [17], in [10], in assay [11], in assay [12], in [18] and in [14] was over 100 µM in each case. The compound further came in with a TGI in [15] of over 100 µM.
As to `C=C(C(=O)C(=O)Oc1ccc(Cl)cc1)C(=O)c1ccc(C)cc1`, the TGI in assay [1] was over 100 µM; in [2] it was over 100 µM; in [3], over 100 µM; in assay [19], 35.4 µM; in assay [4] it was 76 µM; in assay [5], over 100 µM. Moreover, the TGI was over 100 µM in assay [6]; over 100 µM in [7]; 30.3 µM in assay [8]; over 100 µM in assay [9]; over 100 µM in assay [10]; over 100 µM in [11]. Also, the TGI was 46.2 µM in assay [12]; over 100 µM in assay [13]; over 100 µM in assay [18]; over 100 µM in [14]; over 100 µM in [15].
As to `CCOC(=O)c1csc(NC(=O)CCN(CC)CC)n1`, the TGI in assay [1] was over 100 µM; in assay [16] it was 55.5 µM; in assay [3], over 100 µM; in assay [4], over 100 µM; in [6], over 100 µM; in assay [7], over 100 µM. The TGI in assay [17] was over 100 µM; in assay [9] it was 64.6 µM; in [10], over 100 µM; in assay [11], 90.3 µM; in assay [12], over 100 µM; in assay [18] it was 42.8 µM. In addition, the TGI was over 100 µM in assay [14] and 62.8 µM in assay [15].
Regarding `COC(=O)C1C(C(=O)OC)N(Cc2ccccc2)C(=O)N1Cc1ccccc1` (stereo not given), the TGI in assay [20], in assay [1], in [16], in assay [3], in assay [4] and in [5] was over 100 µM in each case. Besides, the TGI in [6], in assay [7], in assay [17], in assay [8], in [9] and in assay [10] was over 100 µM throughout. The TGI in assay [11], in assay [12], in assay [18], in [14] and in assay [15] was over 100 µM in each case.
Regarding `COCCOCOc1ccc(OCc2ccccc2)cc1`, the TGI in [1] is over 100 µM; in assay [16], over 51.4 µM; in assay [2] it was over 100 µM; in assay [3], over 100 µM; in assay [19] it was over 100 µM; in assay [4], over 100 µM. Also, the TGI in assay [5] was over 100 µM; in [6] it was over 100 µM; in [7], over 100 µM; in assay [8], over 100 µM; in assay [9], over 100 µM; in assay [10], over 51 µM. The TGI in [11], in assay [12], in assay [13], in assay [18] and in assay [14] was over 100 µM each time.
As for `CCN1c2ccccc2-n2c(C)nnc2-c2c1n[nH]c2-c1ccccc1`, the TGI in assay [20], in assay [3], in assay [6], in assay [7], in assay [17] and in assay [8] was over 100 µM each time. The TGI is over 100 µM in assay [9]; over 100 µM in assay [10]; 50.7 µM in assay [11]; 46.8 µM in assay [12]; 98.9 µM in assay [14]; over 100 µM in assay [15].
For the compound `CC(C)OP(=O)(OC(C)C)c1c(Nc2ccccc2)n[nH]c1N`, the TGI in assay [20], in [1], in assay [16], in assay [3], in [4] and in [5] was over 100 µM in each case. Further, the TGI in assay [6], in [7], in assay [17], in [9], in [10] and in [11] was over 100 µM each time. In addition, the TGI in assay [12], in assay [18], in assay [14] and in [15] was over 100 µM in each case.
With `C/C(CCOC1CCCCO1)=C(\C)[Si](C)(C)C` (stereo not given), the TGI in assay [2], in assay [3], in assay [19], in assay [4], in assay [5] and in [6] was over 100 µM each time. The TGI in assay [7], in [8], in assay [9], in [11], in [12] and in assay [13] was over 100 µM each time. Also, the TGI in assay [14] and in assay [15] was over 100 µM throughout.
For the compound `C[C@]12CC[C@@H]3c4ccc(O)cc4CC[C@H]3[C@@H]1C/C(=C\c1ccncc1)C2=O`, the TGI in assay [20] was 62.7 µM; in assay [1], over 100 µM; in assay [16] it was over 100 µM; in [3], over 100 µM; in assay [4], over 100 µM; in assay [5] it was 54.8 µM. For the same compound, the TGI is over 100 µM in assay [6]; over 100 µM in assay [7]; 91.6 µM in assay [17]; 72.2 µM in [9]; over 100 µM in assay [10]; over 100 µM in [11]. The TGI in [12] was over 100 µM; in assay [18], over 100 µM; in assay [14], 50.9 µM; in assay [15], over 100 µM.
Take `Oc1ccc(/C=C/c2cc(O)cc(O)c2)cc1`: the TGI in assay [1], in assay [16], in [3], in assay [4], in assay [6] and in assay [7] was over 100 µM throughout. Besides, the TGI in assay [17] was 85.3 µM; in [9], over 100 µM; in assay [10], over 100 µM; in assay [11], over 100 µM; in [12] it was over 100 µM; in [18], over 100 µM. For the same compound, the TGI in assay [14] and in [15] was over 100 µM in each case.
